Experimental data taken from ChEMBL document CHEMBL5143632, “Arylalkynyl amide-type peroxisome proliferator-activated receptor γ (PPARγ)-selective antagonists covalently bind to the PPARγ ligand binding domain with a unique binding mode” (Bioorg Med Chem Lett, 2022).
Calls of active or inactive are those of the source. The rule behind the calls is not given here.

Tests used:
[1] = target: T1, Peroxisome proliferator-activated receptor gamma (Homo sapiens) (UniProt P37231); assay: Covalent binding affinity to apo PPARgamma ligand binding domain (unknown origin) assessed as adduct formation incubated for 24 hrs by ESI-MS analysis
T1 sequence (whole entry): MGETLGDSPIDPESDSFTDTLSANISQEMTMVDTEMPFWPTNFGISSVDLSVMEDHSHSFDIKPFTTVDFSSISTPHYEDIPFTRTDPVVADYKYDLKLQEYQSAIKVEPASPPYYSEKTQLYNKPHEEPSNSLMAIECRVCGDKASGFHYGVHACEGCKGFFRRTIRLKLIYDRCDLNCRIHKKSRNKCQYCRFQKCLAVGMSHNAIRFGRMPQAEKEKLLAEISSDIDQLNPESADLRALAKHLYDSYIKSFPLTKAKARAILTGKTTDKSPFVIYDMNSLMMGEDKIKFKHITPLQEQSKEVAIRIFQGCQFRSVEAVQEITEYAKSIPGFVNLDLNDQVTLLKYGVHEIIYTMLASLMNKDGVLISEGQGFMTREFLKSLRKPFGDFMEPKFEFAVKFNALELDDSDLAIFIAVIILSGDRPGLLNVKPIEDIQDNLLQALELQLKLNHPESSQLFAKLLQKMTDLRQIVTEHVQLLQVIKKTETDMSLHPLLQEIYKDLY

[2] = target: T1, Peroxisome proliferator-activated receptor gamma (Homo sapiens); assay: Covalent binding affinity to apo PPARgamma ligand binding domain (unknown origin) assessed as adduct formation measured within few minutes by ESI-MS analysis

| Activity [1] | Activity [2] | SMILES |
| --- | --- | --- |
| Active |  | COc1ccc(NC(=O)C#Cc2ccccc2)cc1CNC(=O)c1ccc(N2CCCCC2)cc1 |
| Active |  | CCCOc1ccc(NC(=O)C#Cc2ccccc2)cc1CNC(=O)c1ccc(-c2ncccn2)cc1 |
|  | Active | O=C(Nc1ccccc1)c1cc([N+](=O)[O-])ccc1Cl |
